For assay [1], the target named is T1, 5-HT2A (Homo sapiens, UniProt P28223). The assay can be described thus: Radioligand displacement binding (3H-5-HT). Also noted: expressed in transfected cells; host or cells: CHO or HEK293. Here is the method: (§1) The affinity constants of compounds were determined using recombinant human serotonin receptors stably expressed in fibroblast cell lines (CHO or HEK293), measuring the ability of the compounds to displace radio-labelled tracers using scintillation proximity assays or filter binding assays. For 5-HT1B, 5-HT2B and 5-HT2C receptor binding studies ^3H-LSD was used as radio ligand, for 5-HT2A and 5-HT6 ^3H-5-HT was used as tracer, while the binding constant to 5-HT1A was determined using ^3H-8-OH-DPAT. The non-selective serotonin receptor antagonist mianserine was used as reference substance.
T1 sequence (P28223 whole entry): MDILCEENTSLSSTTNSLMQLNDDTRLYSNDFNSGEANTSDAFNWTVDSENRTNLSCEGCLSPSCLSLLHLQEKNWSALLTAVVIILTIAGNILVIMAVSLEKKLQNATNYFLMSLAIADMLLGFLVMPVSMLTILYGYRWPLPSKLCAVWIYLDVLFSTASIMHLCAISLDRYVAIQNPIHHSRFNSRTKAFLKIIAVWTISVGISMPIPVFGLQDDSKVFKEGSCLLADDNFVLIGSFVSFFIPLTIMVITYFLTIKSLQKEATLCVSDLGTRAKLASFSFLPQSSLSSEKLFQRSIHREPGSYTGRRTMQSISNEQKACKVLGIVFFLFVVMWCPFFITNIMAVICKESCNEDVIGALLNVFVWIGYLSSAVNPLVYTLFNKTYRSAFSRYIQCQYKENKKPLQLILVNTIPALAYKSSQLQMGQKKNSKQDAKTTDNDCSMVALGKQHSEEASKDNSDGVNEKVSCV
(§2) The calculation of the Ki values for the inhibitors was performed by use of Activity Base. The Ki value is calculated from IC50 using the Cheng Prushoff equation (with reversible inhibition that follows the Michaelis-Menten equation): […] [Cheng, Y. C.; Prushoff, W. H. Biochem. Pharmacol. 1973, 22, 3099-3108].

Another assay addresses T2, 5-HT6 (Homo sapiens, UniProt P50406).
T2 construct: expressed in transfected cells; host or cells: CHO or HEK293
The assay can be described thus: Radioligand displacement binding (3H-5-HT). The following applies: recombinant human receptor in CHO or HEK293; tracer 3H-5-HT. Here is the method:
as §1, §2
On the technique in general: Displacement assays read how much labelled ligand stays bound in the presence of the test substance.

The target in a further assay is T3, 5-HT1B (Homo sapiens, UniProt P28222).
T3 construct: expressed in transfected cells; host or cells: CHO or HEK293
T3 sequence (P28222 whole entry): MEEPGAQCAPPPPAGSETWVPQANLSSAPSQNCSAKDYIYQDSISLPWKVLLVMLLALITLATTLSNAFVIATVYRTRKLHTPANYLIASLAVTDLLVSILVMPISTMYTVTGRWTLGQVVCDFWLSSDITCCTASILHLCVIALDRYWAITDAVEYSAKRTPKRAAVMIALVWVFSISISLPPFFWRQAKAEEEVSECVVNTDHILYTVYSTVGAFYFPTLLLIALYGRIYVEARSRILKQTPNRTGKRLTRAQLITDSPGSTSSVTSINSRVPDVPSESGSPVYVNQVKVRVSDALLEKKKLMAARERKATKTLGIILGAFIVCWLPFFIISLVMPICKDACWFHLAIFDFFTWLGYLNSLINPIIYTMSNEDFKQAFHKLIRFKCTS
Description: Radioligand displacement binding (3H-LSD). The following applies: recombinant human receptor in CHO or HEK293; tracer 3H-LSD. Here is the method: as §1, §2

Another assay concerns the target T4, 5-HT2B (Homo sapiens, UniProt P41595).
T4 construct: expressed in transfected cells; host or cells: CHO or HEK293
Description: Radioligand displacement binding (3H-LSD). The following applies: recombinant human receptor in CHO or HEK293; tracer 3H-LSD. Here is the method: as §1, §2

The target of a further assay is T5, 5-HT1A (Homo sapiens, UniProt P08908).
T5 construct: expressed in transfected cells; host or cells: CHO or HEK293
T5 sequence (P08908 1-422): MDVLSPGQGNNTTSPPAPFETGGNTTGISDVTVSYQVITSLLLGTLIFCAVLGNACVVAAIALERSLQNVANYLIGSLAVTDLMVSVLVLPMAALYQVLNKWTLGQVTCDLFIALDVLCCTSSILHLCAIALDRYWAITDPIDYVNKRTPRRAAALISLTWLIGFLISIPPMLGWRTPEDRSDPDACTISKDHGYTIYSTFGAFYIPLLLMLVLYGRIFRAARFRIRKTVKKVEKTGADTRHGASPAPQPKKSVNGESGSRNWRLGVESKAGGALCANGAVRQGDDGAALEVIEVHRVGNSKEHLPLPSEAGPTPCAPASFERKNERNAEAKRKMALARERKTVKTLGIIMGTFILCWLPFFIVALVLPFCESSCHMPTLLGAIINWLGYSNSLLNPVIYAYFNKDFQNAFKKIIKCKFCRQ
Description: Radioligand displacement binding (3H-8-OH-DPAT). As to conditions: recombinant human receptor in CHO or HEK293; tracer 3H-8-OH-DPAT. Here is the method:
as §1, §2

The target of assay [2] is T6, 5-HT2C (Homo sapiens, UniProt P28335).
T6 sequence (P28335 33-458): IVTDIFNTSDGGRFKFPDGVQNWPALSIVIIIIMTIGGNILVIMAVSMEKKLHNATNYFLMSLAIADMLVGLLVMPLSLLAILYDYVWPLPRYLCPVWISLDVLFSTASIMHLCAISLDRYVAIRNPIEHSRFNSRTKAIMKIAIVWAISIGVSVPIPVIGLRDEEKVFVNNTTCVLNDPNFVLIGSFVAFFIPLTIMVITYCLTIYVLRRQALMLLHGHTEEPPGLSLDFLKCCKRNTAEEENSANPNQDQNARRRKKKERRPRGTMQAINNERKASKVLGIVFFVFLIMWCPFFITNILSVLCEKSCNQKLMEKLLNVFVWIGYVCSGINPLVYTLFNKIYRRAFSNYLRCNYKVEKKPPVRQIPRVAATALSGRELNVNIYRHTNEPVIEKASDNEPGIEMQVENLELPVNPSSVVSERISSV
The assay can be described thus: FLIPR based assay, effect on 10 nM 5-HT induced Ca2+-currents. Format: cell-based. As to conditions: FLIPR functional assays. Here is the method: The activity at 5-HT2C receptors was studied in a FLIPR based assay, measuring the effect of compounds on 10 nM 5-HT induced_Ca^2+-currents.

The target of assay [3] is T6, 5-HT2C. The assay can be described thus: Radioligand displacement binding (3H-LSD). As to conditions: recombinant human receptor in CHO or HEK293; tracer 3H-LSD. Also noted: expressed in transfected cells; host or cells: CHO or HEK293. The method, then:
as §1, §2

Assay [4] concerns the target T1, 5-HT2A. The assay can be described thus: FLIPR functional assay, inhibition of the 5-HT-evoked peak response (primary screening and IC50 determination). Format: cell-based. Also noted: expressed in transfected cells; host or cells: CHO. The following applies: CHO cells expressing 5-HT2A, 15 min pre-incubation, Ki calculated from IC50 (Cheng-Prusoff). The method, then: CHO cells expressing 5-HT2A receptors seeded in 384 well plates are pre-loaded with Fluo-4AM fluorescent dye and then incubated with compound (10 μM for primary screen) for 15 min. Fluorescent intensity is recorded using a Fluorometric imaging plate reader (FLIPR384, Molecular Devices) and inhibition of the peak response evoked by 5-HT (EC70 concentration) is calculated.
IC50 determinations are performed utilizing the same functional assay as described for primary screening (15 min antagonist compound pre-incubation), applying the compounds in the dose range of 3 nM to 10 μM.
as §2

T4 sequence (P41595 whole entry): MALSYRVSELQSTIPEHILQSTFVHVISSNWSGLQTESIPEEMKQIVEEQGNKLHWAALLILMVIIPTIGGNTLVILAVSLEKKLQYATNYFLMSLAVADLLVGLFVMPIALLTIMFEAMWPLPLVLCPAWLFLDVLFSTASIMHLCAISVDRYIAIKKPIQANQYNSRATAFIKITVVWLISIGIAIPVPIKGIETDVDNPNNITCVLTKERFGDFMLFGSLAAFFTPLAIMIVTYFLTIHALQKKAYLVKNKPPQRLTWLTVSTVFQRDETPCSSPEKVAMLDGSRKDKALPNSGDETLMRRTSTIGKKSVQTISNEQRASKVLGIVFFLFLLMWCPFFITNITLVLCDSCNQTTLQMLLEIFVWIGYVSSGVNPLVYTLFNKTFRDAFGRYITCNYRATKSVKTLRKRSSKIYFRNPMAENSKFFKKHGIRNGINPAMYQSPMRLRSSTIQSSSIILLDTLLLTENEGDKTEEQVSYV
T2 sequence (P50406 whole entry): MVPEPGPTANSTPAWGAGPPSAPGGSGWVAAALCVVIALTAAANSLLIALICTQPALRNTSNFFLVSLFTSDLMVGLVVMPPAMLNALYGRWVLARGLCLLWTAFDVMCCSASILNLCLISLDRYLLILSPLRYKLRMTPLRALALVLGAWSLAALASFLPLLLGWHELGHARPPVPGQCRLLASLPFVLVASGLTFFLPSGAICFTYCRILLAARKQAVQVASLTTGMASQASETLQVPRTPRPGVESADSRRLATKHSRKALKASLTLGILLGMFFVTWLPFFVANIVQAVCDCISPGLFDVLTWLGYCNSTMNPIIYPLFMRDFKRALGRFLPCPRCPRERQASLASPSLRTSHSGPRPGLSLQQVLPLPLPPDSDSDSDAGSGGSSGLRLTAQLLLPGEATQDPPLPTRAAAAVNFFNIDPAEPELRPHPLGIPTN

With `COc1cccc(OC)c1OCCN1CCC(C(=O)NC(=O)Nc2cccc(C(F)(F)F)c2)CC1` [Example 2, 1-[2-(2,6-dimethoxyphenoxy)ethyl]-N-({[3-(trifluoromethyl)phenyl]amino}carbonyl)piperidine-4-carboxamide], the “Selectivity over five other serotonin receptors (5-HT2C, 5-HT2B, 5-HT1A, 5-HT6 and 5-HT1B)” value on 5-HT2A [1] (binding, 5-HT2A versus the other receptors) is reported as “highly selective”. The “Affinity for the 5-HT2A receptor subtype (Ki, in words)” value on 5-HT2A [1] (equilibrium displacement binding) was “in the nanomolar range”. The Ki (usually a measure of affinity in units of concentration, obtained from inhibition or displacement) was 23 nM at 5-HT2A [1] (recombinant human receptor in CHO or HEK293, tracer 3H-5-HT); greater than 1000 nM on 5-HT6; greater than 1000 nM on 5-HT1B; greater than 1000 nM on 5-HT2B; greater than 1000 nM on 5-HT1A; greater than 1000 nM on 5-HT2C [3]. For the same molecule, at 5-HT2A [4], the Ki is 32.3 nM. Also, the “Selectivity at 5-HT2A versus the 5-HT2C receptor in terms of efficacy” value at 5-HT2C [2] is on record as “selective”.

Values taken from patent US20050215589A1, “Inhibitors of 5-HT2A receptor” (priority 2003, published 2005).
